From patent US20020111373A1, “Hydrochloride salt of a fused heterocyclic compound” (SANKYO COMPANY, LIMITED, priority 1999, published 2002)
≈ marks a conversion by molar mass, not a printed value.

Columns and labels:
[1] = Solubility experiment in 1st fluid of Japanese Pharmacopeia; type: physicochemical; details: 37° C.; for solubility at 1 h: pH 1.2, simulated gastric fluid, thermodynamic from solid, 40 mg in 200 ml 1st fluid of Japanese Pharmacopeia, HPLC, read-out: Solubility 1.0 hour later
Protocol: To 200 ml of the 1st fluid of Japanese Pharmacopeia (1000 ml solution made by mixing 2.0 g of sodium chloride with 7.0 ml of hydrochloric acid and water) were added 40 mg of Compound A or Compound B, and the mixture was stirred with a stirrer at 37° C. in a 300 ml conical beaker. One hour later, 10 ml of the sample were filtered through Acrodisk LC13 (PVDF, manufactured by German Science Co.). The initial 3 ml were discarded, and the following 7 ml were taken into a test tube. Of this sample, 5 ml were taken accurately with a whole pipette and added to 2 ml of methanol accurately measured in advance in a test tube.
The quantity was measured by HPLC and the solubility was decided from a calibration curve made according to the following procedure.
The calibration curve was made by preparing a methanolic standard solution of Compound A at a concentration of 400 μg/ml, 100 μg/ml and 20 μg/ml, mixing each 2 ml of the standard solution with 5 ml of the 1st fluid of Japanese Pharmacopeia and determined by HPLC.
Analytical column: L-column ODS (4.6 mm ID×15 cm, manufactured by Chemicals Evaluation Research Institute Japan)
Mobile phase: 0.01 mol/L acetic acid buffer solution (pH 5.0)/acetonitrile mixture (13:7)
Flow rate: about 1.0 ml/min.
Column temperature: 40° C.
Detector: ultraviolet absorptiometer (measuring wavelength: 290 nm)

[2] = tested on: spontaneously diabetic rats (ZDF/Gmi-fa/fa); experiment: Blood sugar lowering activity test in spontaneously diabetic rats; type: in vivo, rat; details: for Blood Sugar Level: male ZDF/Gmi-fa/fa rats, average of 6
Protocol: Male spontaneously diabetic rats (ZDF/Gmi-fa/fa) which were 8-10 weeks old were used.
The test compound was suspended in 0.5% CMC solution, and a dose of 0.33 mg/ml/kg was orally administered consecutively for 2 weeks under compulsion. The blood sugar level was measured in a conventional manner. Thus, the tail end (about 1 mm) of rat was cut, and the blood was collected with a hematocrit tube treated with heparin for anti-coagulation and centrifuged. The resultant plasma was measured with Glucoloader F (A&T).

[3] = 3 Days, 0.33 mg/ml/kg orally, consecutive dosing
[4] = 7 Days, 0.33 mg/ml/kg orally, consecutive dosing
[5] = 14 Days, 0.33 mg/ml/kg orally, consecutive dosing

Row | solubility at 1 h [1] | SMILES | solubility (comparison in words) ([1]; from Table 2, 1st fluid of Japanese Pharmacopeia) | Blood Sugar Level ([2]; 0 Hour (baseline)) | Blood Sugar Level [2, 3] | Blood Sugar Level [2, 4] | Blood Sugar Level [2, 5] | hypoglycemic activity (comparison in words) ([2]; from Table 1, ZDF/Gmi-fa/fa rats, 0.33 mg/ml/kg orally for 2 weeks)
1 | 86.4 µg/mL | COc1ccc2nc(COc3ccc(CC4SC(=O)NC4=O)cc3)n(C)c2c1.Cl (stereo not drawn) [Compound A, 5-[4-(6-methoxy-1-methyl-1H-benzimidazol-2-ylmethoxy)benzyl]thiazolidin-2,4-dione hydrochloride] | markedly better solubility than Compound B | 456 mg/dL | 228 mg/dL | 206 mg/dL | 207 mg/dL | more excellent hypoglycemic activity than Compound B
2 | 41 µg/mL (≈ 103 µM) | COc1ccc2nc(COc3ccc(CC4SC(=O)NC4=O)cc3)n(C)c2c1 (stereo not drawn) [Compound B, 5-[4-(6-methoxy-1-methyl-1H-benzimidazol-2-ylmethoxy)benzyl]-thiazolidin-2,4-dione, reference compound] |  | 456 mg/dL | 379 mg/dL | 409 mg/dL | 535 mg/dL | 
